Test results taken from PubChem BioAssay AID330 (DTP/NCI, 2004).
Several values for one entry are separate records, joined by “and”; a condition that tells them apart may be missing. Equal values may be shown once. Inconclusive results and toxic doses are left out.

System: P388 leukemia ip, CD2F1 mice, survival T/C
Assay: NCI In Vivo Anticancer Drug Screen. Data for tumor model P388 Leukemia (intraperitoneal) in CD2F1 (CDF1) mice
Conditions: endpoint: median survival time, higher = longer survival
Summary of the method: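 Mice carrying the transplanted tumor received test compound or vehicle. Survival was recorded in each group, and the value is the treated-group measurement divided by that of the vehicle-treated control group.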

[1] = dose: 25.0 mg/kg/injection, schedule: Q01DX005 (ip), vehicle: saline with Tween-80
[2] = dose: 100.0 mg/kg/injection, schedule: Q01DX005 (ip), vehicle: saline with Tween-80
[3] = dose: 50.0 mg/kg/injection, schedule: Q01DX005 (ip), vehicle: Klucel (hydroxypropylcellulose) (HPC)
[4] = dose: 100.0 mg/kg/injection, schedule: Q01DX005 (ip), vehicle: Klucel (hydroxypropylcellulose) (HPC)
[5] = dose: 50.0 mg/kg/injection, schedule: Q04DX003 (ip), vehicle: saline with Tween-80
[6] = dose: 100.0 mg/kg/injection, schedule: Q04DX003 (ip), vehicle: saline with Tween-80
[7] = dose: 200.0 mg/kg/injection, schedule: Q04DX003 (ip), vehicle: saline with Tween-80
[8] = dose: 400.0 mg/kg/injection, schedule: Q04DX003 (ip), vehicle: saline with Tween-80
[9] = dose: 12.5 mg/kg/injection, schedule: Q01DX009 (ip), vehicle: Klucel (hydroxypropylcellulose) (HPC)
[10] = dose: 25.0 mg/kg/injection, schedule: Q01DX009 (ip), vehicle: Klucel (hydroxypropylcellulose) (HPC)
[11] = dose: 50.0 mg/kg/injection, schedule: Q01DX009 (ip), vehicle: Klucel (hydroxypropylcellulose) (HPC)
[12] = dose: 50.0 mg/kg/injection, schedule: Q01DX009 (ip), vehicle: saline with Tween-80
[13] = dose: 100.0 mg/kg/injection, schedule: Q01DX009 (ip), vehicle: saline with Tween-80

CC(=O)/C(=C\c1ccc(Cl)c(Cl)c1)C(=O)CCN(C)C
T/C (dose: 12.5 mg/kg/injection, schedule: Q01DX005 (ip), vehicle: saline): 110 % of control and 117 % of control | T/C [1]: 117 % of control | T/C (dose: 25.0 mg/kg/injection, schedule: Q01DX005 (ip), vehicle: saline): 100 % of control and 107 % of control | T/C (dose: 50.0 mg/kg/injection, schedule: Q01DX005 (ip), vehicle: saline): 110 % of control and 111 % of control | T/C [2]: 151 % of control

CC(=O)OCC1OC(n2cc(CI)nn2)C(OC(C)=O)C(OC(C)=O)C1OC(C)=O (configuration not stated)
T/C (dose: 6.25 mg/kg/injection, schedule: Q01DX009 (ip), vehicle: distilled water + Tween-80): 102 % of control and 103 % of control | T/C (dose: 12.5 mg/kg/injection, schedule: Q01DX009 (ip), vehicle: distilled water + Tween-80): 103 % of control and 96 % of control | T/C (dose: 25.0 mg/kg/injection, schedule: Q01DX009 (ip), vehicle: distilled water + Tween-80): 111 % of control and 115 % of control | T/C (dose: 50.0 mg/kg/injection, schedule: Q01DX009 (ip), vehicle: distilled water + Tween-80): 102 % of control and 115 % of control | T/C (dose: 100.0 mg/kg/injection, schedule: Q01DX009 (ip), vehicle: distilled water + Tween-80): 115 % of control

C=CCOc1ccccc1/C(CC)=N/N(C)C
T/C (dose: 50.0 mg/kg/injection, schedule: Q01DX009 (ip), vehicle: saline): 111 % of control | T/C (dose: 100.0 mg/kg/injection, schedule: Q01DX009 (ip), vehicle: saline): 100 % of control

COc1ccc(C2(Cc3ccccc3C#N)OCCO2)cc1OC
T/C (dose: 100.0 mg/kg/injection, schedule: Q04DX002 (ip), vehicle: Klucel (hydroxypropylcellulose) (HPC)): 95 % of control | T/C (dose: 200.0 mg/kg/injection, schedule: Q04DX002 (ip), vehicle: Klucel (hydroxypropylcellulose) (HPC)): 101 % of control | T/C (dose: 400.0 mg/kg/injection, schedule: Q04DX002 (ip), vehicle: Klucel (hydroxypropylcellulose) (HPC)): 99 % of control

CNC(=O)N(C)c1nc(-c2ccccc2)c(-c2ccccc2)n1Cc1ccc(Cl)cc1
T/C (dose: 50.0 mg/kg/injection, schedule: Q04DX002 (ip), vehicle: saline with Tween-80): 94 % of control | T/C (dose: 100.0 mg/kg/injection, schedule: Q04DX002 (ip), vehicle: saline with Tween-80): 99 % of control | T/C (dose: 200.0 mg/kg/injection, schedule: Q04DX002 (ip), vehicle: saline with Tween-80): 92 % of control

NC(=O)c1csc(C2OC3COP(=O)(O)OC3C2O)n1 (configuration not stated)
T/C (dose: 12.5 mg/kg/injection, schedule: Q01DX005 (ip), vehicle: water): 105 % of control | T/C (dose: 25.0 mg/kg/injection, schedule: Q01DX005 (ip), vehicle: water): 105 % of control | T/C (dose: 50.0 mg/kg/injection, schedule: Q01DX005 (ip), vehicle: water): 114 % of control and 118 % of control | T/C (dose: 100.0 mg/kg/injection, schedule: Q01DX005 (ip), vehicle: water): 123 % of control and 124 % of control | T/C (dose: 200.0 mg/kg/injection, schedule: Q01DX005 (ip), vehicle: water): 152 % of control | T/C (dose: 400.0 mg/kg/injection, schedule: Q01DX005 (ip), vehicle: water): 155 % of control

COc1ccc2c(C)cc(N/N=C(\C)c3cn(C)n(-c4ccccc4)c3=O)nc2c1
T/C (dose: 12.5 mg/kg/injection, schedule: Q01DX005 (ip), vehicle: Klucel (hydroxypropylcellulose) (HPC)): 98 % of control | T/C (dose: 25.0 mg/kg/injection, schedule: Q01DX005 (ip), vehicle: Klucel (hydroxypropylcellulose) (HPC)): 95 % of control | T/C [3]: 101 % of control and 93 % of control | T/C [4]: 110 % of control

C/C(=C\N1CCN(c2ccc(F)cc2)CC1)C(=O)c1ccc(F)cc1
T/C [5]: 101 % of control | T/C [6]: 99 % of control | T/C [7]: 98 % of control | T/C [8]: 117 % of control

Nc1ncnc2c1ccn2C1OC(CO)C(O)C1O (configuration not stated)
T/C (dose: 0.44 mg/kg/injection, schedule: Q01DX001 (ip), vehicle: saline): 120 % of control | T/C (dose: 0.5 mg/kg/injection, schedule: Q01DX009 (ip), vehicle: water): 113 % of control | T/C (dose: 0.88 mg/kg/injection, schedule: Q01DX001 (ip), vehicle: saline): 110 % of control | T/C (dose: 8.0 mg/kg/injection, schedule: Q01DX010 (sc), vehicle: saline): 105 % of control | T/C (dose: 16.0 mg/kg/injection, schedule: Q01DX010 (sc), vehicle: saline): 110 % of control | T/C (dose: 55.0 micrograms/kg/injection, schedule: Q07DX Z (ip), vehicle: saline): 90 % of control | T/C (dose: 110.0 micrograms/kg/injection, schedule: Q07DX Z (ip), vehicle: saline): 105 % of control | T/C (dose: 220.0 micrograms/kg/injection, schedule: Q07DX Z (ip), vehicle: saline): 105 % of control | T/C (dose: 440.0 micrograms/kg/injection, schedule: Q07DX Z (ip), vehicle: saline): 105 % of control

O=C1N/C(=N\O)C(F)C(NO)N1 (configuration not stated)
T/C (dose: 11.25 mg/kg/injection, schedule: Q04DX002 (ip), vehicle: distilled water + Tween-80): 94 % of control | T/C (dose: 22.5 mg/kg/injection, schedule: Q04DX002 (ip), vehicle: distilled water + Tween-80): 103 % of control | T/C (dose: 45.0 mg/kg/injection, schedule: Q04DX002 (ip), vehicle: distilled water + Tween-80): 99 % of control | T/C (dose: 90.0 mg/kg/injection, schedule: Q04DX002 (ip), vehicle: distilled water + Tween-80): 103 % of control | T/C (dose: 180.0 mg/kg/injection, schedule: Q04DX002 (ip), vehicle: distilled water + Tween-80): 93 % of control | T/C (dose: 360.0 mg/kg/injection, schedule: Q04DX002 (ip), vehicle: distilled water + Tween-80): 93 % of control

CCOC(=O)Nc1nc2c(SC#N)cc(C)cc2s1
T/C [9]: 103 % of control | T/C [10]: 96 % of control | T/C [11]: 88 % of control and 96 % of control

O=C(c1cccs1)C1NO[N+]([O-])=C1c1cccs1 (configuration not stated)
T/C (dose: 6.25 mg/kg/injection, schedule: Q01DX005 (ip), vehicle: saline with Tween-80): 100 % of control | T/C (dose: 12.5 mg/kg/injection, schedule: Q01DX005 (ip), vehicle: saline with Tween-80): 106 % of control | T/C [1]: 115 % of control

CC1(C)OCC2OC=CC(=O)C2O1 (configuration not stated)
T/C [5]: 108 % of control | T/C [6]: 101 % of control | T/C (dose: 100.0 mg/kg/injection, schedule: Q04DX003 (ip), vehicle: saline): 108 % of control | T/C [7]: 111 % of control | T/C (dose: 200.0 mg/kg/injection, schedule: Q04DX003 (ip), vehicle: saline): 104 % of control | T/C [8]: 120 % of control | T/C (dose: 400.0 mg/kg/injection, schedule: Q04DX003 (ip), vehicle: saline): 124 % of control

CN(C)CCCN1c2ccc(O)cc2Sc2ccc(Cl)cc21
T/C (dose: 25.0 mg/kg/injection, schedule: Q04DX003 (ip), vehicle: saline with Tween-80): 100 % of control | T/C [5]: 95 % of control | T/C [6]: 95 % of control

O=C1Nc2ccccc2C(=O)C1=Ic1ccccc1
T/C (dose: 15.0 mg/kg/injection, schedule: Q01DX005 (ip), vehicle: Klucel (hydroxypropylcellulose) (HPC)): 101 % of control | T/C (dose: 30.0 mg/kg/injection, schedule: Q01DX005 (ip), vehicle: Klucel (hydroxypropylcellulose) (HPC)): 104 % of control | T/C [3]: 94 % of control | T/C (dose: 60.0 mg/kg/injection, schedule: Q01DX005 (ip), vehicle: Klucel (hydroxypropylcellulose) (HPC)): 104 % of control and 88 % of control | T/C [4]: 91 % of control

CC(C)CCCC(C)C1CCC2C3CCC4CC(OP(=O)(O)O)CCC4(C)C3CCC12C (configuration not stated)
T/C [12]: 99 % of control | T/C [13]: 96 % of control | T/C (dose: 200.0 mg/kg/injection, schedule: Q01DX009 (ip), vehicle: saline with Tween-80): 93 % of control

CC(=O)Nc1ccc(Sc2ncc([N+](=O)[O-])s2)cc1
T/C [9]: 100 % of control | T/C [10]: 116 % of control | T/C [11]: 100 % of control and 108 % of control | T/C (dose: 100.0 mg/kg/injection, schedule: Q01DX009 (ip), vehicle: Klucel (hydroxypropylcellulose) (HPC)): 102 % of control

NC1CCC(O)CC1C(=O)O (configuration not stated)
T/C (dose: 50.0 mg/kg/injection, schedule: Q01DX005 (ip), vehicle: saline with Tween-80): 99 % of control | T/C [2]: 103 % of control | T/C (dose: 200.0 mg/kg/injection, schedule: Q01DX005 (ip), vehicle: saline with Tween-80): 86 % of control

Cc1cnc2c(N)cc(C)c(C)c2c1
T/C (dose: 12.5 mg/kg/injection, schedule: Q01DX009 (ip), vehicle: saline with Tween-80): 94 % of control | T/C (dose: 25.0 mg/kg/injection, schedule: Q01DX009 (ip), vehicle: saline with Tween-80): 100 % of control | T/C [12]: 99 % of control and 100 % of control | T/C [13]: 86 % of control
